Source: patent US12594258B2, “Inhibitors of MHC-I Nef downmodulation for treating HIV” (priority 2019, dated 2026)
Entries after “also recorded” stand apart in the source; their conditions may differ. Where two headings read alike, the source gives them in different places.

Key:
[1] = test system: HIV Nef
[2] = test system: primary CD4+ T cells; experiment: MTT and flow cytometric viability assays in primary CD4+ T cells; assay type: cell-based, human; details: Nef activity 24 hours, viability 72 hours
Procedure: CD4^+ T cells were plated at a density of 1×10^5 cells in 200 μL R10-50 in flat-bottom 96-well plates 4 days post-stimulation with PHA. Cells were exposed to titrations of plecomacrolides or solvent controls for 72 hours in culture, at which point viability was assessed relative to solvent by MTT assay in experimental duplicates. Equal volumes of cell culture medium containing CD4^+ T cells were pelleted in 96-well round-bottom plates and incubated in 4.5 mg/mL MTT (Fisher, M6494) in R10 with no Phenol Red at 37° C. until the purple formazan signal was clearly visible. The absorbance of cell pellets resuspended in DMSO was measured at 595 nm on a Molecular Devices Emax precision microplate reader and compared a standard curve of known viable cell numbers to ensure the experimental samples fell within the linear range of the assay.

[3] = test system: lysosomal pH in human monocyte-derive macrophages (MDMs); experiment: Lysosensor Yellow/Blue dextran analysis of lysosomal pH in MDMs; assay type: cell-based
Procedure: To measure the lysosomal pH in human monocyte-derive macrophages (MDMs), MDMs adhered to 24-well plates were exposed to 500 μg/mL Lysosensor Yellow/Blue dextran, 10,000 MW (ThermoFisher, L22460) in R10 for 24 hours. MDMs were then exposed to plecomacrolides for 1 hour and harvested with 0.05% Trypsin-EDTA (Gibco 25300054). Cells were washed twice in FACS buffer, and analyzed on a MoFlo Astrios flow cytometer, with blue signal excited from a 354 nm laser and yellow signal excited from a 405 nm laser. A standard curve was generated by resuspending MDMs in equilibration buffers of known pH as previously described. The ratio of blue:yellow fluorescence intensity was calculated for each cell, the median blue:yellow ratio for the cell population for each condition was obtained, and the lysosomal pH in MDMs was calculated for each condition using the standard curve.
Lysosensor Yellow/Blue Dextran Analysis of Lysosomal pH. To measure the lysosomal pH in human MDMs, MDMs adhered to 24-well plates were exposed to 500 μg/mL Lysosensor Yellow/Blue dextran, 10,000 molecular weight (MVV) in R10 for 24 h. MDMs were then exposed to plecomacrolides for 1 h and harvested with 0.05% Trypsin-(ethylenedinitrilo)tetraacetic acid (EDTA). Cells were washed twice in FACS buffer, and analyzed on a flow cytometer, with blue signal excited from a 354-nm laser and yellow signal excited from a 405-nm laser. A standard curve was generated by resuspending MDMs in equilibration buffers of known pH. The ratio of blue:yellow fluorescence intensity was calculated for each cell, the median blue:yellow ratio for the cell population for each condition was obtained, and the lysosomal pH in MDMs was calculated for each condition using the standard curve.

[4] = test system: HIV Nef; remark: listed apart in the source

SMILES | reduction of Nef-dependent HLA-A2 downmodulation ([1]; primary T cells transduced with ΔGPE) [fold] | EC50 ([1]; read-out: EC50 for Nef inhibition, HIV-infected primary CD4+ T cells, HLA-A2) [nM] | difference between the 50% effective and toxic concentrations (EC50 and TC50) [2] [fold] | neutralization of lysosomal pH [3] | EC50 ([3]; 1 hour, read-out: EC50 for lysosome neutralization) [nM] | reduction of Nef-dependent HLA-A2 downmodulation [4] | level of MHC-I restoration compared to CMA [1] | restoration of MHC-I ([1]; 24 hours post-treatment) | restoration of MHC-I to the surface of Nef-expressing cells ([1]; 48 hours of exposure) | concentration required for restoration of MHC-I compared to CMA ([1]; higher than CMA)
CO/C1=C\C(C)=C\[C@@H](C)[C@@H](O)[C@@H](C)C/C(C)=C/C=C/[C@H](OC)[C@@H]([C@@H](C)[C@@H](O)[C@H](C)[C@@]2(O)C[C@@H](O)[C@H](C)[C@@H](C(C)C)O2)OC1=O [Baf A1] | […] | […] | […] | completely neutralize lysosomal pH | […] | over ten-fold |  |  |  | 
CC[C@H](C)C(=O)O[C@H]1C[C@@H](C)C=C2C=C[C@H](C)[C@H](CC[C@@H]3C[C@@H](O)CC(=O)O3)[C@H]21 [lovastatin, Lovastatin] |  |  |  |  |  |  | a fraction of the levels achieved by CMA; also recorded: did not achieve comparable levels | little restoration of MHC-I | partially restore MHC-I | 2,000 fold
